For series [1], the system named is B16-F10 cells. As to the kind of experiment: MTT cytotoxicity assay, B16-F10. It counts as cell-based. Particulars: Mus musculus. An excerpt:
We studied the growth-inhibitory effects of 2HF on the B16-F0 and B16-F10 murine melanoma cell lines as well as on the SK-MEL-24 human melanoma cell line. B16-F10 and SK-MEL-24 have been shown in previous studies to be highly resistant to treatment and much more invasive than B16-F0 [32]. […] The absorption value measured upon reduction of the MTT dye by functional mitochondria is an indirect measure of cell number that cannot distinguish inhibited cell proliferation from apoptotic or necrotic cell death. By counting viable (trypan-blue dye-excluding) cells using a hemacytometer, we verified that 2HF did indeed cause cell death.
Figure 1 Mouse and human melanoma cell survival following 2′-hydroxyflavanone (2HF) treatment.
The IC50 of 2HF on B16-F0, B16-F10, and SK-MEL-24 cells was determined by MTT cytotoxicity assay. Cells were harvested and Trypan Blue dye exclusion test was used to determine the number of viable cells present in a cell suspension using a hemocytometer. The cell suspension was diluted to 5 × 10^4 cells/mL with Dulbecco’s Modified Eagle’s Medium (DMEM) complete medium and 5000 cells/well were plated in 96-well plates. After 24 h incubation at 37 °C, cells were treated with 2HF concentrations ranging from 0–200 µM (8 replicates per plate). After 48 or 72 h incubation, 40 µL of MTT (5 mg/mL) solution was added. After 4 h incubation, the plate was centrifuged at 700× g for 5 min and medium was aspirated completely. Then, 50 µL DMSO was added to each well to dissolve the purple precipitate on the rocking platform for about 15 min. The absorbance was then measured at 490 nm using a 96-well microplate reader (Spectramax Plus, Molecular Devices, Inc, San Jose, CA, USA).
Background: Formazan colour is commonly taken as a measure of viable cells.

Series [2] is described as follows: Blood counts and serum chemistry after topical 2HF. The class given is in vivo, B16-F0 melanoma-bearing C57B mice. Particulars: topical 12 mg 2HF/0.1 mL PLO gel. As for the experimental part: Blood samples were collected from representative mice from the control and 2HF-treated with 12 mg/0.1 mL PLO gel topically each day for 8 weeks just before euthanasia. These samples were used for hematologic, hepatic, renal, and metabolic profiling. A Hemavet instrument (Drew Scientific, Dallas, TX, USA) was used for determination of hematologic parameters.

Series [3] concerns B16-F10 cells. As to the kind of experiment: EGF-pHrodo endocytosis, B16-F10 (microscopy). Particulars: Rlip-antisense, Rlip-shRNA, or 10 µM 2HF for 24 h. The class given is cell-based, mouse. As for the experimental part:
Figure 3 Effects of Rlip depletion on epidermal growth factor (EGF) endocytosis of mouse melanoma cells. Representative photomicrographs of Rlip-depleted B16-F0 and B16-F10 cells showing the inhibition of EGF-pHrodo endocytosis. […] Rlip was depleted by treating cells with Rlip-antisense, Rlip-shRNA, or 10 µM 2HF for 24 h as described in Materials and Methods section 4.8. Photographs were taken at identical exposures using 200× magnification.
The effect of Rlip knockdown/depletion by shRNA, RLIP76-antisense (R508), or 2HF on endocytosis was studied in B16 melanoma cell lines. The cells were transfected with Rlip shRNA or R508 antisense and their scrambled shRNA and scrambled antisense (CAS) controls as previously described. Briefly, B16 cells were grown in DMEM medium containing 10% FBS on Nunc 4 chamber slides overnight to 70–80% confluence. For RLIP76 knockdown, pSUPER retro puro shRLIP plasmid DNA (8 µg/mL) and RLIP76-antisense (R508; 10 μg/mL final conc.) and their respective controls (scrambled shRNA and CAS) were pre-complexed with Lipofectamine 2000 reagent in Opti-MEM® reduced serum medium for transfection of the cells. Other sets of slides were treated with vehicle (Methanol) or 10 µM 2HF to inhibit Rlip expression. […] Slides were analyzed using a fluorescence microscope (Olympus America, Melville, NY, USA). […]

The record followed here is article PMC6826616, “Topical 2′-Hydroxyflavanone for Cutaneous Melanoma” (Cancers, 2019).

SMILES strings stand for the structures. Read-outs that look alike come from different tables or passages of the source.

`O=C1CC(c2ccccc2O)Oc2ccccc21` (stereo not shown) [2HF, 2′-hydroxyflavanone]: the IC50 stood at 47 ± 6 µM in the series with B16-F10 cells [1] (MTT, 72 h, mean ±SD, n = 5, read-out: IC50 at 72 h (growth/survival)) and 42 ± 1.83 µM in the series on B16-F10 cells [1] (Table 1, agent alone, read-out: IC50). The “adverse effects on blood counts, renal function, or liver enzymes” value in series [2] is listed as “no adverse effects”. Moreover, the “EGF-pHrodo endocytosis (fluorescence microscopy)” value with B16-F10 cells [3] is “completely blocked”.
